From patent US7301033B2, “PPAR-activating compound” (Kowa Co., Ltd., priority 2005, dated 2007)

Key:
Assay type in all cases: cell-based
human PPARα = molecular target: T1, human PPARα (Homo sapiens, UniProt Q07869); test: Gal4-human PPARα chimera luciferase transfection assay in COS cells; conditions: compound added at 1 μM, luciferase activity with WY14643 10 μM given as 10.0, 16 hours
T1 construct: 166th to 467th amino acids of human PPARα; expressed in transfected cells; host or cells: COS cells (African green monkey kidney)
T1 sequence (Q07869 166-467): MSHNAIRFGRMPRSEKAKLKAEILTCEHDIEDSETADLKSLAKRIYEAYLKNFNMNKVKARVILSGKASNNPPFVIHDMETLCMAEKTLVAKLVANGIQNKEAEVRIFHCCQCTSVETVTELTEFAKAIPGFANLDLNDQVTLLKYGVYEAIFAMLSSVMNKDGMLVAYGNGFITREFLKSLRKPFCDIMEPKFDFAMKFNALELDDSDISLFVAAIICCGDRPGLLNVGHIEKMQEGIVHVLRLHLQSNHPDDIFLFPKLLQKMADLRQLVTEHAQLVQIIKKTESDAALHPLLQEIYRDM
Experimental: (§1) The PPAR receptor-activating effect of the compound of the present invention represented by the formula (1) was measured by a method described below (Proc. Natl. Acad. Sci., 92, pp 7297-7301, 1995; Journal of Lipid Research, 40, pp 2099-2110, 1999; and Proc. Natl. Acad. Sci, 98, pp 5306-5311, 2001).
(§2) All the transfection assays were conducted using African green monkey kidney-derived cell line COS cells. The COS cells were cultured at 5% CO2 concentration using a DMEM medium containing 10% fetal bovine serum, glutamic acid, and an antibiotic as a culture solution.
(§3) Gal4-human PPARs chimeric constructs which were fused the DNA-binding region of yeast transcription factor Gal4 with the ligand-binding region of human PPARs were used as an expression vector. A chimera where 1st to 147th amino acids of the Gal4 transcription factor were fused with 166th to 467th amino acids of human PPARα, with 182nd to 505th amino acids of human PPARγ2, or with 137th to 441st amino acids of human PPARδ was used as the chimera for each isoform. A reporter vector used was firefly luciferase whose promoter region contains five Gal4 recognition sequences. The plasmids were transfected into the cells by a method using Lipofectamine. In addition, a β-galactosidase expression vector was used as an internal standard.
(§4) After the transfection into the cells, the medium was substituted with a DMEM medium (containing 0.2% serum) supplemented with the compound, in which the cells were then cultured for additional 16 hours. Thereafter, luciferase activity and β-galactosidase activity in the cell lysate were measured.
(§5) In the present experiment, dimethyl sulfoxide (DMSO) was used in the dissolution and dilution of the compound. When the cells were treated, the DMSO concentration in the DMEM medium (containing 0.2% serum) was adjusted to 0.1%.

human PPARγ2 = molecular target: T2, human PPARγ2 (Homo sapiens, UniProt P37231); test: Gal4-human PPARγ2 chimera luciferase transfection assay in COS cells; conditions: compound added at 1 μM, luciferase activity with rosiglitazone 1 μM given as 10.0, 16 hours
T2 construct: with 182nd to 505th amino acids of human PPARγ2; expressed in transfected cells; host or cells: COS cells (African green monkey kidney)
T2 sequence (P37231 182-505): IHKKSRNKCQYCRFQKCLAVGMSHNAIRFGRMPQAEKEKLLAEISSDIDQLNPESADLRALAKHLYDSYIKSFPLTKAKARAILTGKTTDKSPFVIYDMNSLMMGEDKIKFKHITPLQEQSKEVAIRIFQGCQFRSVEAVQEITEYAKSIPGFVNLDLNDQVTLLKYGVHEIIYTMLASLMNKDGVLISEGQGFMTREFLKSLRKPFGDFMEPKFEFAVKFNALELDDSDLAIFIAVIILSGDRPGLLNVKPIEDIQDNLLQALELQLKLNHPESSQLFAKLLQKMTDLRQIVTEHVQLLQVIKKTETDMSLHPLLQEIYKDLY
Experimental: as §1, §2, §3, §4, §5

human PPARδ = molecular target: T3, human PPARδ (Homo sapiens, UniProt Q03181); test: Gal4-human PPARδ chimera luciferase transfection assay in COS cells; conditions: compound added at 1 μM, luciferase activity with GW501516 1 μM given as 10.0, 16 hours
T3 construct: with 137th to 441st amino acids of human PPARδ; expressed in transfected cells; host or cells: COS cells (African green monkey kidney)
T3 sequence (Q03181 137-441): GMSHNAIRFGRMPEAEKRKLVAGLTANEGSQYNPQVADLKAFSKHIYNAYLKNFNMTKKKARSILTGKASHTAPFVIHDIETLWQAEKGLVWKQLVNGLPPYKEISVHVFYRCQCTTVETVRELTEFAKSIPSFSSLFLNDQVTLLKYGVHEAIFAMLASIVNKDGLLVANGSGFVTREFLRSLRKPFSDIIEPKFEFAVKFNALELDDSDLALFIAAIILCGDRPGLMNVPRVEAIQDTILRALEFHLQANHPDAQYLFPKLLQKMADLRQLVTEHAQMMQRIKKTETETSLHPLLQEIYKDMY
Experimental: as §1, §2, §3, §4, §5

Row | SMILES | hPPAR; Relative activity α (human PPARα) | hPPAR; Relative activity γ (human PPARγ2) | hPPAR; Relative activity δ (human PPARδ)
1 | O=C(O)c1ccccc1SCCCCCN(CCCOc1ccccc1)c1nc2ccccc2o1 [Example 105, 2-[5-[N-(Benzoxazol-2-yl)-N-3-phenoxypropyl]aminopentylthio]benzoic acid] | 25.3 | 2.5 | 4.2
2 | CCCCCCCCN(CCCCCS(=O)(=O)c1ccccc1C(=O)O)c1nc2ccccc2o1 [Example 122, 2-[5-[N-(Benzoxazol-2-yl)-N-n-octyl]aminopentylsulfonyl]benzoic acid] | 12.2 | 2.3 | 0.2
3 | O=C(O)c1cccc(OCCCCN(CCOc2ccc(Cl)cc2)c2nc3ccccc3o2)c1 [Example 45, 3-[4-[N-(Benzoxazol-2-yl)-N-2-(4-chloropheoxyl)ethyl]aminobutoxy]benzoic acid] | 12.3 | 3.5 | 0.6
4 | O=C(O)c1ccccc1SCCCCCN(Cc1ccc(Cl)cc1)c1nc2ccccc2o1 [Example 98, 2-[5-[N-(Benzoxazol-2-yl)-N-4-chlorobenzyl]aminopentylthio]benzoic acid] | 14.7 | 3.3 | 0.7
5 | O=C(O)c1ccccc1SCCN(CCCOc1ccccc1)c1nc2ccccc2o1 [Example 80, 2-[2-[N-(Benzoxazol-2-yl)-N-3-phenoxypropyl]aminoethylthio]benzoic acid] | 17.8 | 1.6 | 0.2
6 | O=C(O)c1cccc(OCCCN(CCOc2ccc(Cl)cc2)c2nc3ccccc3o2)c1 [Example 6, 3-[3-[N-(Benzoxazol-2-yl)-N-2-(4-chlorophenoxy)ethyl]aminopropoxy]benzoic acid] | 17.3 | 1.2 | 0.3
7 | CCCCCCCCN(CCCCOc1ccccc1C(=O)O)c1nc2ccccc2o1 [Example 50, 2-[4-[N-(Benzoxazol-2-yl)-N-n-octyl]aminobutoxy]benzoic acid] | 13.3 | 2.9 | 0.1
8 | O=C(O)c1ccccc1OCCCCN(CCCOc1ccccc1)c1nc2ccccc2o1 [Example 53, 2-[4-[N-(Benzoxazol-2-yl)-N-3-phenoxypropyl]aminobutoxy]benzoic acid] | 16.0 | 3.5 | 0.1
9 | CCCCCN(CCCCCSc1ccccc1C(=O)O)c1nc2ccccc2o1 [Example 72, 2-[5-[N-(Benzoxazol-2-yl)-N-n-pentyl]aminopentylthio]benzoic acid] | 13.5 | 1.7 | 0.6
10 | CCN(CCCCSc1ccccc1C(=O)O)c1nc2ccccc2s1 [Example 108, 2-[4-[N-(Benzothiazol-2-yl)-N-ethyl]aminobutylthio]benzoic acid] | 16.2 | 1.4 | 0.2
11 | CN(CCCCCSc1ccccc1C(=O)O)c1nc2ccccc2o1 [Example 100, 2-[5-[N-(Benzoxazol-2-yl)-N-methyl]aminopentylthio]benzoic acid] | 20.2 | 1.7 | 0.2
12 | CCCCCCCCN(CCCOc1ccccc1C(=O)O)c1nc2ccccc2o1 [Example 27, 2-[3-[N-(Benzoxazol-2-yl)-N-n-octyl]aminopropoxy]benzoic acid] | 13.7 | 1.9 | 0.1
13 | O=C(O)c1ccccc1SCCN(CCCc1ccccc1)c1nc2ccccc2o1 [Example 79, 2-[2-[N-(Benzoxazol-2-yl)-N-3-phenylpropyl]aminoethylthio]benzoic acid] | 13.3 | 1.1 | 0.2
14 | CCCCCCCN(CCCCOc1cccc(C(=O)O)c1)c1nc2ccccc2o1 [Example 46, 3-[4-[N-(Benzoxazol-2-yl)-N-n-heptyl]aminobutoxy]benzoic acid] | 16.5 | 1.9 | 0.3
15 | CCCCCCCCN(CCSc1ccccc1C(=O)O)c1nc2ccccc2o1 [Example 78, 2-[2-[N-(Benzoxazol-2-yl)-N-n-octyl]aminoethylthio]benzoic acid] | 20.8 | 2.1 | 0.2
